Assay results: PubChem BioAssay AID330 (DTP/NCI, 2004)
“And” between values parts separate entries of the source, which are not always exact repeats. Equal entries are not always repeated. Toxic doses and inconclusive results are not listed.

Test system: P388 leukemia ip, CD2F1 mice, survival T/C
Assay: NCI In Vivo Anticancer Drug Screen. Data for tumor model P388 Leukemia (intraperitoneal) in CD2F1 (CDF1) mice
Settings: endpoint: median survival time, higher = longer survival
Method in brief: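 Mice carrying the transplanted tumor received test compound or vehicle. Survival was recorded in each group, and the value is the treated-group measurement divided by that of the vehicle-treated control group.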

[1] = dose: 50.0 mg/kg/injection, schedule: Q01DX009 (ip), vehicle: saline with Tween-80
[2] = dose: 100.0 mg/kg/injection, schedule: Q01DX009 (ip), vehicle: saline with Tween-80
[3] = dose: 200.0 mg/kg/injection, schedule: Q01DX009 (ip), vehicle: saline with Tween-80
[4] = dose: 100.0 mg/kg/injection, schedule: Q04DX003 (ip), vehicle: saline
[5] = dose: 200.0 mg/kg/injection, schedule: Q04DX003 (ip), vehicle: saline
[6] = dose: 400.0 mg/kg/injection, schedule: Q04DX003 (ip), vehicle: saline
[7] = dose: 60.0 mg/kg/injection, schedule: Q01DX005 (ip), vehicle: Klucel (hydroxypropylcellulose) (HPC)
[8] = dose: 120.0 mg/kg/injection, schedule: Q01DX005 (ip), vehicle: Klucel (hydroxypropylcellulose) (HPC)
[9] = dose: 100.0 mg/kg/injection, schedule: Q01DX009 (ip), vehicle: saline
[10] = dose: 200.0 mg/kg/injection, schedule: Q01DX009 (ip), vehicle: saline
[11] = dose: 240.0 mg/kg/injection, schedule: Q01DX005 (ip), vehicle: Klucel (hydroxypropylcellulose) (HPC)
[12] = dose: 50.0 mg/kg/injection, schedule: Q01DX005 (ip), vehicle: Klucel (hydroxypropylcellulose) (HPC)
[13] = dose: 100.0 mg/kg/injection, schedule: Q01DX005 (ip), vehicle: Klucel (hydroxypropylcellulose) (HPC)
[14] = dose: 200.0 mg/kg/injection, schedule: Q01DX005 (ip), vehicle: Klucel (hydroxypropylcellulose) (HPC)
[15] = dose: 25.0 mg/kg/injection, schedule: Q01DX005 (ip), vehicle: Klucel (hydroxypropylcellulose) (HPC)

In the case of `CC(=NCc1ccccc1)/C(=N\O)C(=O)Nc1ccc(Cl)cc1`, the T/C (dose: 400.0 mg/kg/injection, schedule: Q04DX003 (ip), vehicle: saline with Tween-80) is reported as 96 % of control.

For `Cc1ncc(C(N)=O)c(N)n1`, the T/C [1] was 103 % of control, the T/C [2] was 104 % of control and the T/C [3] was 104 % of control.

With `CC(=C1N=c2ccccc2=N1)c1[nH]c(O)c2ccccc12` the T/C [1] was 95 % of control, the T/C [2] was 90 % of control and the T/C [3] was 96 % of control.

`CC(=O)N1CCCC2=C1CCCCC2` was tested, and the T/C [4] was 92 % of control, the T/C [5] was 100 % of control and the T/C [6] was 101 % of control.

`COc1cc2c(N)nc(N3CCN(C(=O)OCC(C)(C)O)CC3)nc2c(OC)c1OC` was tested, and the T/C (dose: 50.0 mg/kg/injection, schedule: Q01DX005 (ip), vehicle: suspension in saline) was 95 % of control, the T/C (dose: 100.0 mg/kg/injection, schedule: Q01DX005 (ip), vehicle: suspension in saline) was 100 % of control and the T/C (dose: 200.0 mg/kg/injection, schedule: Q01DX005 (ip), vehicle: suspension in saline) was 113 % of control.

With `COc1ccc(C2=C(C#N)C(=C(C#N)C#N)NC(N)=C2C#N)cc1` the T/C [7] was 105 % of control and the T/C [8] was 91 % of control.

With `CC(=O)On1nnc2ccccc2c1=O` the T/C (dose: 6.25 mg/kg/injection, schedule: Q01DX009 (ip), vehicle: distilled water + Tween-80) was 97 % of control, the T/C (dose: 12.5 mg/kg/injection, schedule: Q01DX009 (ip), vehicle: distilled water + Tween-80) was 100 % of control and the T/C (dose: 25.0 mg/kg/injection, schedule: Q01DX009 (ip), vehicle: distilled water + Tween-80) was 97 % of control.

For `NS(=O)(=O)c1cccnc1Nc1cccc(Cl)c1Cl`, the T/C (dose: 50.0 mg/kg/injection, schedule: Q01DX009 (ip), vehicle: saline) was 100 % of control, the T/C [9] was 100 % of control and the T/C [10] was 96 % of control.

For `O=c1[nH]cc(N=Cc2cccc3c2OCO3)c(=O)[nH]1`, the T/C (dose: 100.0 mg/kg/injection, schedule: Q01DX001 (ip), vehicle: suspension in saline) was 99 % of control and the T/C (dose: 200.0 mg/kg/injection, schedule: Q01DX001 (ip), vehicle: suspension in saline) was 86 % of control.

With `O=C(O)C1CCC[N-]1.[Cl][Pd][Cl]` (stereo unspecified) the T/C (dose: 6.25 mg/kg/injection, schedule: Q01DX009 (ip), vehicle: water) was 105 % of control, the T/C (dose: 12.5 mg/kg/injection, schedule: Q01DX009 (ip), vehicle: water) was 96 % of control and the T/C (dose: 25.0 mg/kg/injection, schedule: Q01DX009 (ip), vehicle: water) was 100 % of control. The T/C (dose: 50.0 mg/kg/injection, schedule: Q01DX009 (ip), vehicle: water) was 114 % of control and the T/C (dose: 100.0 mg/kg/injection, schedule: Q01DX009 (ip), vehicle: water) was 93 % of control.

In the case of `O=S(=O)(O)O.[Cu+2].[NH2-].[NH2-].[NH2-].[NH2-]`, the T/C (dose: 5.0 mg/kg/injection, schedule: Q04DX002 (ip), vehicle: saline) is reported as 99 % of control, the T/C (dose: 6.25 mg/kg/injection, schedule: Q01DX009 (ip), vehicle: saline) is reported as 86 % of control and the T/C (dose: 12.5 mg/kg/injection, schedule: Q01DX009 (ip), vehicle: saline) is reported as 93 % of control.

In the case of `NC(CSC1(c2cccc3ccccc23)c2ccccc2-c2ccccc21)C(=O)O` (stereo unspecified), the T/C [7] is reported as 93 % of control, the T/C [8] is reported as 90 % of control and the T/C [11] is reported as 88 % of control.

For `Cc1nc2ncn(-c3ccccc3)c2c(=O)n1C`, the T/C [12] was 95 % of control, the T/C [13] was 90 % of control and the T/C [14] was 95 % of control.

In the case of `O=C(NCCNC(=O)C12CC3CC(CC(C3)C1)C2)C12CC3CC(CC(C3)C1)C2`, the T/C (dose: 6.0 mg/kg/injection, schedule: Q01DX005 (ip), vehicle: Klucel (hydroxypropylcellulose) (HPC)) is reported as 88 % of control, the T/C (dose: 12.0 mg/kg/injection, schedule: Q01DX005 (ip), vehicle: Klucel (hydroxypropylcellulose) (HPC)) is reported as 88 % of control and the T/C (dose: 100.0 mg/kg/injection, schedule: Q01DX001 (ip), vehicle: saline with Tween-80) is reported as 94 % of control. For the same compound, the T/C (dose: 200.0 mg/kg/injection, schedule: Q01DX001 (ip), vehicle: saline with Tween-80) was 95 % of control and the T/C (dose: 400.0 mg/kg/injection, schedule: Q01DX001 (ip), vehicle: saline with Tween-80) was 86 % of control.

In the case of `O=C1N(CC2CO2)CCN1CC1CO1` (stereo unspecified), the T/C (dose: 25.0 mg/kg/injection, schedule: Q01DX009 (ip), vehicle: saline) is reported as 120 % of control, the T/C [9] is reported as 155 % of control and 159 % of control and the T/C [10] is reported as 206 % of control and 215 % of control.

With `COc1ccc2c(c1)[nH]c1c(C)c3ccncc3c(C)c12` the T/C (dose: 18.75 mg/kg/injection, schedule: Q04DX002 (ip), vehicle: Klucel (hydroxypropylcellulose) (HPC)) was 95 % of control, the T/C (dose: 37.5 mg/kg/injection, schedule: Q04DX002 (ip), vehicle: Klucel (hydroxypropylcellulose) (HPC)) was 92 % of control and the T/C (dose: 75.0 mg/kg/injection, schedule: Q04DX002 (ip), vehicle: Klucel (hydroxypropylcellulose) (HPC)) was 90 % of control. For the same compound, the T/C (dose: 150.0 mg/kg/injection, schedule: Q04DX002 (ip), vehicle: Klucel (hydroxypropylcellulose) (HPC)) was 100 % of control.

For `C=C(C)C(=NC(C)C)Nc1ccccc1`, the T/C (dose: 6.25 mg/kg/injection, schedule: Q01DX005 (ip), vehicle: Klucel (hydroxypropylcellulose) (HPC)) was 103 % of control and 104 % of control, the T/C (dose: 12.5 mg/kg/injection, schedule: Q01DX005 (ip), vehicle: Klucel (hydroxypropylcellulose) (HPC)) was 107 % of control and 123 % of control and 96 % of control and the T/C [15] was 99 % of control and 104 % of control and 106 % of control.

For `CN1C2=CC3(OC2C(C)(C)c2ccccc21)N(C)c1ccccc1C3(C)C` (stereo unspecified), the T/C [7] was 93 % of control, the T/C [8] was 92 % of control and the T/C [11] was 93 % of control.

With `CC(C)[C@@H](C)/C=C/[C@@H](C)[C@H]1CC[C@@H]2[C@]1(C)CC[C@H]1[C@]23C=C[C@]2(C[C@@H](O)CC[C@]12C)OO3` the T/C (dose: 3.75 mg/kg/injection, schedule: Q01DX005 (ip), vehicle: Klucel (hydroxypropylcellulose) (HPC)) was 93 % of control, the T/C (dose: 7.5 mg/kg/injection, schedule: Q01DX005 (ip), vehicle: Klucel (hydroxypropylcellulose) (HPC)) was 93 % of control and the T/C (dose: 15.0 mg/kg/injection, schedule: Q01DX005 (ip), vehicle: Klucel (hydroxypropylcellulose) (HPC)) was 86 % of control. For the same compound, the T/C [15] was 90 % of control, the T/C (dose: 30.0 mg/kg/injection, schedule: Q01DX005 (ip), vehicle: Klucel (hydroxypropylcellulose) (HPC)) was 90 % of control and the T/C [12] was 89 % of control. For the same compound, the T/C [13] was 86 % of control and the T/C [14] was 98 % of control.

With `CCOC(=O)/C=C/C(=O)O.CCOC(=O)/C=C/C(=O)O.[Mn].[NH-]CC(=O)O` the T/C [4] was 96 % of control, the T/C [5] was 96 % of control and the T/C [6] was 98 % of control.

`N#CC(=O)Nc1cccc(Cl)c1` was tested, and the T/C (dose: 15.0 mg/kg/injection, schedule: Q01DX005 (ip), vehicle: saline with Tween-80) was 107 % of control and the T/C (dose: 30.0 mg/kg/injection, schedule: Q01DX005 (ip), vehicle: saline with Tween-80) was 103 % of control.

In the case of `Clc1ccc(-c2nc(-c3cc4cc(Cl)ccc4o3)cs2)cc1`, the T/C (dose: 50.0 mg/kg/injection, schedule: Q01DX009 (ip), vehicle: Klucel (hydroxypropylcellulose) (HPC)) is reported as 100 % of control, the T/C (dose: 100.0 mg/kg/injection, schedule: Q01DX009 (ip), vehicle: Klucel (hydroxypropylcellulose) (HPC)) is reported as 100 % of control and the T/C (dose: 200.0 mg/kg/injection, schedule: Q01DX009 (ip), vehicle: Klucel (hydroxypropylcellulose) (HPC)) is reported as 104 % of control.

`CCC1(C)c2cc(C)c(C(C)=O)cc2C(C)(C)C1C` (stereo unspecified) was tested, and the T/C (dose: 25.0 mg/kg/injection, schedule: Q01DX009 (ip), vehicle: saline with Tween-80) was 100 % of control, the T/C [1] was 101 % of control and the T/C [2] was 100 % of control.

`Cc1c(C)[n+]([O-])c(-c2ccc(Cl)cc2)n1O` was tested, and the T/C [1] was 100 % of control, the T/C [2] was 100 % of control and the T/C [3] was 100 % of control.

With `CC1C=CC(C)S(=O)N1C(=O)Cc1ccccc1` (stereo unspecified) the T/C [7] was 100 % of control, the T/C [8] was 106 % of control and the T/C [11] was 113 % of control.

With `CC1=C(C(=O)Nc2ccccc2)C(c2ccc(C)cc2)C(C(=O)Nc2ccccc2)=C(C)N1` the T/C (dose: 100.0 mg/kg/injection, schedule: Q04DX002 (ip), vehicle: saline with Tween-80) was 107 % of control, the T/C (dose: 200.0 mg/kg/injection, schedule: Q04DX002 (ip), vehicle: saline with Tween-80) was 106 % of control and the T/C (dose: 400.0 mg/kg/injection, schedule: Q04DX002 (ip), vehicle: saline with Tween-80) was 101 % of control.

With `COc1cc(OC)c(C(=O)CCN(C)C)cc1OC` the T/C (dose: 60.0 mg/kg/injection, schedule: Q01DX005 (ip), vehicle: saline) was 109 % of control, the T/C (dose: 120.0 mg/kg/injection, schedule: Q01DX005 (ip), vehicle: saline) was 116 % of control and the T/C (dose: 240.0 mg/kg/injection, schedule: Q01DX005 (ip), vehicle: saline) was 114 % of control.
